Experimental data from patent publication US9700633B2, “Conjugates of water soluble polymer-amino acid oligopeptide-drug, preparation method and use thereof” (JENKEM TECHNOLOGY CO. LTD., TIANJIN BRANCH, priority 2013, dated 2017).
Where “and” joins values, the source holds several entries; their conditions need not be identical. Identical values can stand only once. Marks after values point to notes of the source that are not given here.

Columns and labels:
[1] = In vitro degradation assay in 0.01 M PBS buffer solution; type: physicochemical
Protocol: In order to determine the degradation of the compounds in PBS buffer solution, the compounds DSR1˜6 were dissolved in 0.01 M PBS buffer solution, and were sampled every 30 min.

[2] = system: human colon cancer HCT-116; test: Xenografted tumor of human colon cancer HCT-116 in nude mice; type: in vivo, BALB/cA nude mice; details: 45 mg/kg, qw × 3w, iv
Protocol: The diameter of subcutaneously xenografted tumor of the nude mice was measured by the caliper.

[3] = system: human lung cancer A549; test: Xenografted tumor of human lung cancer A549 in nude mice; type: in vivo, BALB/cA nude mice; details: 45 mg/kg, qw × 3w, iv
[4] = system: human colon cancer HT-29; test: Xenografted tumor of human colon cancer HT-29 in nude mice; type: in vivo, BALB/cA nude mice; details: 45 mg/kg, qw × 3w, iv
[5] = system: human ovarian cancer SKOV-3; test: Xenografted tumor of human ovarian cancer SKOV-3 in nude mice; type: in vivo, BALB/cA nude mice; details: 45 mg/kg, qw × 3w, iv
[6] = system: human colon cancer SW-620; test: Xenografted tumor of human colon cancer SW-620 in nude mice; details: 45 mg/kg, qw × 3w, iv
[7] = system: K562 human chronic myelogenous leukemia; test: Subcutaneous tumor model of K562 human chronic myelogenous leukemia; type: in vivo, NOD/SCID mice; details: 5 mg/kg; for Relative tumor volume (x ± SE) / Tumor volume (x ± SE): intravenous twice a week
Protocol: K562 cells were subcutaneously inoculated at the back of NOD/SCID mice right side so as to establish a subcutaneous xenograft animal model of human chronic myelogenous leukemia. When the average tumor volume reached 130 mm^3, the experiment mice were divided to different groups, with 8 mice for each group, and the drugs were administrated by intravenous injections twice a week. The effect was evaluated based on relative tumor proliferation ratio (T/C %).
Tumor cells were routinely passaged twice a week. Tumor cells in exponential growth phase were collected, then suspended in a mixture of PBS: matrigel with equal volume ratio and placed on ice for tumor inoculation.
5×10^6 K562 cells were subcutaneously inoculated at the back of experiment mice right side. The mice were monitored at regular intervals for the tumor growth. When tumor grew to average 130 mm^3, the mice were divided to groups randomly according to tumor volume and mouse body weight, and were administrated.
(§1) All of the operations relevant to operation, nursing and treatment in this investigation were conducted according to guidelines approved by Association for Assessment and Accreditation of Laboratory Animal Care (AAALAC). After the incoluation, the incidence of disease and death of animals were observed every day. In the process of daily observation, the effects of tumor growth on normal behavior of animals (such as exercise, feeding, drinking, body weight change, eyes, hair) as well as any other abnormality were attentively monitored. Death and clinical symptom were recorded for animals in each group.
The calculation formula for tumor volume is as follows: tumor volume (mm^3)=0.5×(long diameter of the tumor×short diameter of the tumor^2). RTV and T/C ratios were calculated according to the tumor volumes of the treatment groups and the control group. RTV refers to relative tumor volume. T/C ratio refers to the percentage value of the average tumor volumes between the treatment groups and the control group at a time point after the treatment, which reflects the anti-tumor effects of different treatment groups.
All the experiment results were expressed as the average tumor volume±SE (standard error). For statistical analysis, since the variances of relative tumor volume data were different, one-way analysis of variance (one-way ANOVA) and Dunnett T3 method for multiple comparisons were used to compare significant difference of relative tumor volumes between the groups. p<0.05 indicated the significant difference.

[8] = system: PC-3 human prostate cancer; test: Subcutaneous tumor model of PC-3 human prostate cancer; type: in vivo, Balb/c nude mouse; details: 10 mg/kg
Protocol: PC-3 cells were subcutaneously inoculated at the right side on the back of Balb/c nude mouse so as to establish a subcutaneous xenograft animal model of human prostate cancer. When the average tumor volume reached 160 mm^3, the experiment mice were divided to different groups, with 8 mice for each group, and the drugs were administrated by intravenous injections twice a week. The therapeutic effect was evaluated based on relative tumor proliferation ratio (T/C %).
PC-3 cell line was cultured in vitro in Ham's F12K medium with supplement of 10% fetal calf serum and L-glutamine (2 mM) at 37° C. in an atmosphere with 5% CO2 for the tumor cells culture. The tumor cells were routinely passaged twice a week. Tumor cells in exponential growth phase were collected, then were suspended in a mixture of PBS: matrigel with equal volume ratio and were placed on ice for tumor inoculation.
5×10^6 PC-3 cells were subcutaneously inoculated at the right side on the back of experiment mice. The mice were monitored at regular intervals for the tumor growth. When tumor grew to average 160 mm^3, the mice were divided to groups randomly according to the tumor volume and the mouse body weight, and were administrated.
as §1
The calculation formula for tumor volume is as follows: tumor volume (mm^3)=0.5×(long diameter of the tumor×short diameter of the tumor^2). RTV and T/C ratios were calculated according to the tumor volumes of the treatment groups and the control group. RTV refers to relative tumor volume. T/C ratio refers to the percentage value of the relative tumor volumes of the treatment groups and the control group at a time point after the treatment, which reflects the anti-tumor effects of different treatment groups. At the end of the experiment, the pictures of the tumors were recorded according to the following two methods: 1. after euthanatized by CO2, the animals in each group were placed with tumor-bearing side up, and the pictures were taken and recorded respectively for each group; 2. after the tumor was removed, the tumor weight was weighed first. T/C (percentage value of the tumor weight between the treatment group and the control group) was calculated, and then the tumors from each group were placed in order. The pictures of the tumors were taken and recorded.
All the experiment results were expressed as average tumor volume±SE (standard error). For statistical analysis, one-way analysis of variance (one-way ANOVA) and LSD multiple comparisons method were used for the relative tumor volume data, comparing the significant difference of the relative tumor volumes between the groups. p<0.05 indicates the significant difference.

[9] = intravenous twice a week, 22nd day after grouping

## conjugate of methoxy PEG dipeptide acid of glutamic acid (20K)-dasatinib [DSR-1]
[1]; at 60 min
  degradation: 60%

## conjugate of methoxy PEG dipeptide of glutamic acid alanine (20K)-dasatinib [DSR-3]
[1]; at 150 min
  degradation: 50%

## conjugate of methoxy PEG dipeptide of glutamic acid and glycine (20K)-dasatinib [DSR-2]
[1]; at 90 min
  degradation: 50%

## conjugate of methoxy PEG dipeptide of glutamic acid and glycine (number-average molecular weight of 20,000)-irinotecan [YNR-1]
[2]
  RTV (mean ± SD): 1.78 ± 0.23**^,##
  T/C: 27.60%
[2]; d0
  TV (mean ± SD) d0: 132 ± 30 mm^3
[2]; d28
  TV (mean ± SD) d28: 234 ± 54 mm^3
[3]
  RTV (mean ± SD): 2.97 ± 1.04*^,#
  T/C: 20.62%
[3]; d0
  TV (mean ± SD) d0: 105 ± 21 mm^3
[3]; d28
  TV (mean ± SD) d28: 320 ± 154 mm^3
[4]
  RTV (mean ± SD): 5.71 ± 1.21
  T/C: 41.08%
[4]; d0
  TV (mean ± SD) d0: 115 ± 25 mm^3
[4]; d28
  TV (mean ± SD) d28: 642 ± 105 mm^3
[5]
  RTV (mean ± SD): 0.07 ± 0.01*^,#
  T/C: 0.53%
[5]; d0
  TV (mean ± SD) d0: 135 ± 35 mm^3
[5]; d28
  TV (mean ± SD) d28: 1.27 ± 1.98 mm^3
[5]; d28, 6 mice per group
  number of animals with vanished tumor: 4
[6]
  RTV (mean ± SD): 0.003 ± 0.002**^,#
  T/C: 0.02%
[6]; d0
  TV (mean ± SD) d0: 130 ± 43 mm^3
[6]; d28
  TV (mean ± SD) d28: 0.37 ± 0.29 mm^3
[6]; d28, 6 mice per group
  number of animals with vanished tumor: 2

## conjugate of methoxy PEG glutamic acid dipeptide valine (20K)-dasatinib [DSR-4]
[1]; at 240 min
  degradation: 20%
[7]; 14th day after the grouping, compared with the solvent control group
  T/C (relative tumor proliferation ratio): 1.6%
[7]; 21st day after grouping, compared with the dasatinib group
  T/C (relative tumor proliferation ratio): 45%
[7]; 14th day after the grouping
  Relative tumor volume (x ± SE): 29.1 ± 4.8
  Tumor volume (x ± SE): 39.2 mm^3 and 39.2 ± 6 mm^3
[7]; 21st day after grouping
  Relative tumor volume (x ± SE): 130 ± 28
  Tumor volume (x ± SE): 176 mm^3 and 176 ± 59 mm^3
[8]; 22nd day after grouping, compared with the solvent control group
  T/C (relative tumor proliferation ratio): 47%
[8]; 25th day after grouping, compared with the dasatinib group
  T/C (relative tumor proliferation ratio): 61%
[8]; [9]
  Relative tumor volume (x ± SE): 745.9 ± 54.4
  Tumor volume (x ± SE): 1187 mm^3 and 1187 ± 67 mm^3
[8]; intravenous twice a week, 25th day after grouping
  Relative tumor volume (x ± SE): 751.9 ± 78.9
